From patent US20250147039A1, “Compounds for complexation of rare earth elements and/or s-, p-, d- block metals, their coordination compounds, peptide conjugates, method of their preparation and use thereof” (USTAV ORGANICKE CHEMIE A BIOCHEMIE AV CR V.V.I., priority 2021, published 2025)

Assays:
Type in all cases: physicochemical
[1] = Relaxivities of Gd^III chelates, inversion recovery pulse sequence on relaxometer (0.5 T) (Chart 15); settings: 40.0° C., 1.0 mM in aq. MOPS/NaOH buffer, pH 7.0
[2] = Formation of 1,5-cz-[Ln(Lig)] from 1,5-cz-Lig (metal dependent direct complexation) (Chart 8); settings: pH 7.0
[3] = Formation of 1,5-cz-[Ln(Lig)] from 1,5-cz-Lig (metal dependent direct complexation), RT and 80° C. (Chart 9); settings: pH 7.0; for conversion to 1,5-cz-[Ln(Lig)] from 1,5-cz-Lig, Bi^III: ~4% DMSO

C#Cc1cccc(CN2CC[N@]3CCN(Cc4cc(-c5ccccc5)cc(CN=[N+]=[N-])n4)CC[N@@](CC2)CC(=O)[O][Gd][O]C(=O)C3)n1 [TD451]
2.39 mM⁻¹ s⁻¹: relaxivity [1]

O=C(O)CN1CC[N@]2CCN(CC(=O)O)CC[N@@](CC1)Cc1cccc(n1)-c1cnnn1Cc1cc(-c3ccccc3)cc(n1)C2 [TD650]
0%: conversion to 1,5-cz-[Ln(Lig)] from 1,5-cz-Lig, Ce^III ([2]; A: 1 hour at 80° C.) | conversion to 1,5-cz-[Ln(Lig)] from 1,5-cz-Lig, Dy^III ([2]; A: 1 hour at 80° C.) | conversion to 1,5-cz-[Ln(Lig)] from 1,5-cz-Lig, Er^III ([2]; A: 1 hour at 80° C.) | conversion to 1,5-cz-[Ln(Lig)] from 1,5-cz-Lig, Eu^III ([2]; A: 1 hour at 80° C.) | conversion to 1,5-cz-[Ln(Lig)] from 1,5-cz-Lig, Gd^III ([2]; A: 1 hour at 80° C.) | conversion to 1,5-cz-[Ln(Lig)] from 1,5-cz-Lig, Ho^III ([2]; A: 1 hour at 80° C.) | conversion to 1,5-cz-[Ln(Lig)] from 1,5-cz-Lig, La^III ([2]; A: 1 hour at 80° C.) | conversion to 1,5-cz-[Ln(Lig)] from 1,5-cz-Lig, Lu^III ([2]; A: 1 hour at 80° C.) | conversion to 1,5-cz-[Ln(Lig)] from 1,5-cz-Lig, Nd^III ([2]; A: 1 hour at 80° C.) | conversion to 1,5-cz-[Ln(Lig)] from 1,5-cz-Lig, Pr^III ([2]; A: 1 hour at 80° C.) | conversion to 1,5-cz-[Ln(Lig)] from 1,5-cz-Lig, Sm^III ([2]; A: 1 hour at 80° C.) | conversion to 1,5-cz-[Ln(Lig)] from 1,5-cz-Lig, Tb^III ([2]; A: 1 hour at 80° C.) | conversion to 1,5-cz-[Ln(Lig)] from 1,5-cz-Lig, Tm^III ([2]; A: 1 hour at 80° C.) | conversion to 1,5-cz-[Ln(Lig)] from 1,5-cz-Lig, Yb^III ([2]; A: 1 hour at 80° C.) | conversion to 1,5-cz-[Ln(Lig)] from 1,5-cz-Lig, Ce^III ([2]; B: 1 week at 80° C.) | conversion to 1,5-cz-[Ln(Lig)] from 1,5-cz-Lig, Dy^III ([2]; B: 1 week at 80° C.) | conversion to 1,5-cz-[Ln(Lig)] from 1,5-cz-Lig, Er^III ([2]; B: 1 week at 80° C.) | conversion to 1,5-cz-[Ln(Lig)] from 1,5-cz-Lig, Eu^III ([2]; B: 1 week at 80° C.) | conversion to 1,5-cz-[Ln(Lig)] from 1,5-cz-Lig, Gd^III ([2]; B: 1 week at 80° C.) | conversion to 1,5-cz-[Ln(Lig)] from 1,5-cz-Lig, Ho^III ([2]; B: 1 week at 80° C.) | conversion to 1,5-cz-[Ln(Lig)] from 1,5-cz-Lig, La^III ([2]; B: 1 week at 80° C.) | conversion to 1,5-cz-[Ln(Lig)] from 1,5-cz-Lig, Lu^III ([2]; B: 1 week at 80° C.) | conversion to 1,5-cz-[Ln(Lig)] from 1,5-cz-Lig, Nd^III ([2]; B: 1 week at 80° C.) | conversion to 1,5-cz-[Ln(Lig)] from 1,5-cz-Lig, Pr^III ([2]; B: 1 week at 80° C.) | conversion to 1,5-cz-[Ln(Lig)] from 1,5-cz-Lig, Sm^III ([2]; B: 1 week at 80° C.) | conversion to 1,5-cz-[Ln(Lig)] from 1,5-cz-Lig, Tb^III ([2]; B: 1 week at 80° C.) | conversion to 1,5-cz-[Ln(Lig)] from 1,5-cz-Lig, Tm^III ([2]; B: 1 week at 80° C.) | conversion to 1,5-cz-[Ln(Lig)] from 1,5-cz-Lig, Yb^III ([2]; B: 1 week at 80° C.) | conversion to 1,5-cz-[Ln(Lig)] from 1,5-cz-Lig, Gd^III ([2]; C: ~6 months at 80° C.) | conversion to 1,5-cz-[Ln(Lig)] from 1,5-cz-Lig, Lu^III ([2]; C: ~6 months at 80° C.) | conversion to 1,5-cz-[Ln(Lig)] from 1,5-cz-Lig, Ca^II ([3]; B: 1 hour at RT) | conversion to 1,5-cz-[Ln(Lig)] from 1,5-cz-Lig, Ni^II ([3]; B: 1 hour at RT) | conversion to 1,5-cz-[Ln(Lig)] from 1,5-cz-Lig, Ba^II ([3]; D: 1 week at 80° C.) | conversion to 1,5-cz-[Ln(Lig)] from 1,5-cz-Lig, Ga^II ([3]; D: 1 week at 80° C.) | conversion to 1,5-cz-[Ln(Lig)] from 1,5-cz-Lig, In^III ([3]; D: 1 week at 80° C.) | conversion to 1,5-cz-[Ln(Lig)] from 1,5-cz-Lig, Sc^III ([3]; D: 1 week at 80° C.) | conversion to 1,5-cz-[Ln(Lig)] from 1,5-cz-Lig, Sr^II ([3]; D: 1 week at 80° C.) | conversion to 1,5-cz-[Ln(Lig)] from 1,5-cz-Lig, Y^III ([3]; D: 1 week at 80° C.)
90%: conversion to 1,5-cz-[Ln(Lig)] from 1,5-cz-Lig, Bi^III ([3]; D: 1 week at 80° C.)
91%: conversion to 1,5-cz-[Ln(Lig)] from 1,5-cz-Lig, Zn^II ([3]; C: 1 hour at 80° C.)
43%: conversion to 1,5-cz-[Ln(Lig)] from 1,5-cz-Lig, Cu^II ([3]; A: 1 min at RT)
99%: conversion to 1,5-cz-[Ln(Lig)] from 1,5-cz-Lig, Pb^II ([3]; B: 1 hour at RT) | conversion to 1,5-cz-[Ln(Lig)] from 1,5-cz-Lig, Cd^II ([3]; D: 1 week at 80° C.) | conversion to 1,5-cz-[Ln(Lig)] from 1,5-cz-Lig, Zn^II ([3]; D: 1 week at 80° C.)
2%: conversion to 1,5-cz-[Ln(Lig)] from 1,5-cz-Lig, Bi^III ([3]; B: 1 hour at RT)
49%: conversion to 1,5-cz-[Ln(Lig)] from 1,5-cz-Lig, Cu^II ([3]; C: 1 hour at 80° C.)
11%: conversion to 1,5-cz-[Ln(Lig)] from 1,5-cz-Lig, Ni^II ([3]; D: 1 week at 80° C.)
98%: conversion to 1,5-cz-[Ln(Lig)] from 1,5-cz-Lig, Pb^II ([3]; A: 1 min at RT) | conversion to 1,5-cz-[Ln(Lig)] from 1,5-cz-Lig, Cd^II ([3]; C: 1 hour at 80° C.) | conversion to 1,5-cz-[Ln(Lig)] from 1,5-cz-Lig, Pb^II ([3]; C: 1 hour at 80° C.) | conversion to 1,5-cz-[Ln(Lig)] from 1,5-cz-Lig, Pb^II ([3]; D: 1 week at 80° C.)
78%: conversion to 1,5-cz-[Ln(Lig)] from 1,5-cz-Lig, Cu^II ([3]; D: 1 week at 80° C.)
47%: conversion to 1,5-cz-[Ln(Lig)] from 1,5-cz-Lig, Cu^II ([3]; B: 1 hour at RT)
59%: conversion to 1,5-cz-[Ln(Lig)] from 1,5-cz-Lig, Zn^II ([3]; B: 1 hour at RT)
96%: conversion to 1,5-cz-[Ln(Lig)] from 1,5-cz-Lig, Bi^III ([3]; C: 1 hour at 80° C.) | conversion to 1,5-cz-[Ln(Lig)] from 1,5-cz-Lig, Ca^II ([3]; D: 1 week at 80° C.)
58%: conversion to 1,5-cz-[Ln(Lig)] from 1,5-cz-Lig, Cd^II ([3]; B: 1 hour at RT)
9%: conversion to 1,5-cz-[Ln(Lig)] from 1,5-cz-Lig, Ni^II ([3]; C: 1 hour at 80° C.)
23%: conversion to 1,5-cz-[Ln(Lig)] from 1,5-cz-Lig, Ca^II ([3]; C: 1 hour at 80° C.)
